Laboratory results from patent US6358941B1, “Treatment of arthritis disorders, rheumatoid arthritis and manifestations associated with rheumatoid disorders” (priority 1996, dated 2002).
Structures can show the parent of a compound that is named as a salt.

What was measured:
[1] = test system: patient with Rheumatoid Arthritis and anaemia; assay: Treatment of a patient with anaemia of chronic disorder (Example 6); type: in vivo, human
Method: The patient was treated in the period between Jan. 3, 1997 and Jan. 20, 1997.

[2] = test system: patients suffering from different arthritic disorders of rheumatoid origin; assay: Treatment of patients with rheumatoid diseases (Example 7); type: in vivo, human
Source text: Stiffness: Joint stiffness is a complaint covering sensations which range from slight resistance to all movements through the normal range, to blocking of certain movements due to fixed anatomical changes. Certain types of stiffness are highly characteristic, such as early morning stiffness.
Early morning stiffness occurs primarily in rheumatoid arthritis, but also in other arthritic diseases. The patient awakes with distressing, painful stiffness of all affected joints. This is gradually “worked off ” by activity over one half to three hours or more. This “limbering up time” provides a reliable measure of inflammatory activity. In osteoarthritis stiffness tends to come on later in the day and is preceded by activity.
In one of the examples given of rheumatoid patients on galantamine, the parameters evaluated were tiredness, sleep, pain, and stiffness. […] All these parameters were evaluated with a questionaire and VAS (Visual Analogue Scale) which refer to the patients' reporting as regards the severity of the symptoms, represented by a 0-100 percentage line.

[3] = room temperature; galantamine and its acid addition salts; cited from earlier work
[4] = humans; cited from earlier work
[5] = test system: haemolysate cholinesterase (erythrocyte acetylcholinesterase); assay: Cholinesterase activity in haemolysed whole blood (Sigma Diagnostics Cholinesterase (PTC) kit); type: biochemical, human; settings: 0 to 2.5 μg/ml added in vitro
Method: (§1) SIGMA DIAGNOSTICS® CHOLINESTERASE (PTC) kit, available from Sigma Diagnostics, can be used for determining the activity and selectivity of cholinesterase inhibitors.
(§2) Reactions involved in the cholinesterase assay are as follows:
(§3) Propionylthiocholine+H2O→Propionic Acid+Thiocholine
(§4) Thiocholine+5, 5′-Dithiobis-2-Nitrobenzoic Acid→5-Thio-2-Nitrobenzoic Acid
(§5) 5-Thio-2-Nitrobenzoic Acid is assessed by measuring the absorbance at 405 nm. The rate of change in absorbance at 405 nm is directly proporational to cholinesterase activity.
(§6) The activity of erythrocyte cholinesterase may be calculated on the basis of the measurement of butyrylcholinesterase (pseudocholinesterase) in serum and cholinesterase in haemolyzed whole blood (haemolysate), both measured simultaneously by the method described above, and evaluated according to the haematocrit value according to the formula
HChE=(EChE×Hctg*)+(PChE×(1-Hct*))
In the above formulae, EChE is erythrocyte cholinesterase activity, PChE is plasma cholinesterase activity, HChE is haemolysate cholinesterase activity, and Hct is haematocrit value of the sample.
Another way of assessing the cholinesterase activity is to measure the plasma cholinesterase and the cholinesterase in purified haemolyzed erythrocytes. By doing this, the values are obtained directly.
Blood samples from 3 patients were tested with the Sigma test. […]

[6] = target: T1, butyrylcholinesterase (pseudocholinesterase) in serum (Homo sapiens, UniProt P06276); assay: Cholinesterase activity in serum (Sigma Diagnostics Cholinesterase (PTC) kit); type: biochemical; settings: 0 to 2.5 μg/ml added in vitro
T1 construct: butyrylcholinesterase (pseudocholinesterase) in serum; from tissue; host or cells: serum of patients
T1 sequence (P06276 29-602): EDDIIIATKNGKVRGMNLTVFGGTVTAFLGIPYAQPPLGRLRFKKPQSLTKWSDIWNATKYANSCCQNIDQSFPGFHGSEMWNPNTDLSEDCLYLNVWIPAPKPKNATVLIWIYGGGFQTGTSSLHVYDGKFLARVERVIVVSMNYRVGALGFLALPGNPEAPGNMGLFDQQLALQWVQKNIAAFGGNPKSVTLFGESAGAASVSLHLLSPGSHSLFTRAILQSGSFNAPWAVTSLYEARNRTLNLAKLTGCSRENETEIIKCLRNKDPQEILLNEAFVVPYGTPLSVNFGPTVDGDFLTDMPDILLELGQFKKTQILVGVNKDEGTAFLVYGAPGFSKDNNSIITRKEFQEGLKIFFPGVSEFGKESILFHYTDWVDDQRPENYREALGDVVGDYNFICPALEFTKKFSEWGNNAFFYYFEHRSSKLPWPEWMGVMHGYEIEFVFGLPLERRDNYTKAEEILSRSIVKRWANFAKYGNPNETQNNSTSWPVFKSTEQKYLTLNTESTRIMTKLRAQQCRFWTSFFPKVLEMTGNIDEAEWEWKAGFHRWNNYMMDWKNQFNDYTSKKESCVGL
Method: as §1, §2, §3, §4, §5, §6
Blood samples from 3 patients were tested with the Sigma test. […] The results are shown below in table 1.1.

[7] = test system: patients with osteoarthritis; assay: Treatment of patients with osteoarthritis (Example 5); type: in vivo, human
[8] = in vivo; cited from earlier work

COc1ccc2c3c1O[C@H]1C[C@@H](O)C=C[C@@]31CCN(C)C2 [galantamine]
Haematocrit ([1]; 20-1-97, after treatment with 15 mg per day orally, normal 0.360-0.470, 0.342 on 3-1-97): 0.362 L/L | White cells ([1]; 20-1-97, after treatment with 15 mg per day orally, normal 3.8-10.2, 6.6 on 3-1-97): 5.9e+09 L⁻¹ | Red cells ([1]; 20-1-97, after treatment with 15 mg per day orally, normal 4.00-5.8, 3.72 on 3-1-97): 3.94e+12 L⁻¹ | Haemoglobin ([1]; 20-1-97, after treatment with 15 mg per day orally, normal 118-158, 115 on 3-1-97): 124 g/L | patients reporting a significant improvement in their symptoms ([2]; 13 patients, patient numbers 1, 2, 3, 5, 9, 10 and 12): 50% | augmentation of grip strength ([2]; one RA patient (patient number 1)): over 50% | solubility in water [3]: only sparingly soluble | passing the blood-brain barrier [4]: capable of passing the blood-brain barrier

COc1ccc2c3c1O[C@H]1C[C@@H](O)C=C[C@@]31CCN(C)C2 [galantamine hydrobromide]
Change of haemolysate cholinesterase activity with increased concentration [5]: significant reduction | Change of serum cholinesterase activity as response to addition [6]: do not show any statistically significant changes | joint pain symptoms, second patient ([7]; 10 mg per day (2 x 5 mg tablets), after three days, osteoarthritis not diagnosed): improvement in symptoms | osteoarthritis symptoms, first volunteer ([7]; 10 mg per day orally (2 x 5 mg), after seven days, maintained over 31 days, dose raised to 30 mg per day): improvement in osteoarthritis symptoms | symptoms when medication was discontinued, first volunteer ([7]; after 31 day period): Symptoms were reported to recur | laboratory blood tests reflecting anaemia ([1]; 15 mg per day (3 x 5 mg orally), after 14 days): significant improvement | elimination half life [8]: over four
